From PubChem BioAssay (NCI)
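These data come from cells grown in 96-well plates and exposed to compound for 48 hours at five concentrations. TGI denotes the concentration required for complete inhibition of growth.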 *1 amine or outer side, *2 acyl side, *3 side chain or, on linkers, in order; H or OH if unused. Where a SMILES comes first, the peptide text is derived from it. [ ]: non-standard residue; d: D form. The star is where a group is joined. ξ: configuration not given here. X27 = O=C([C@H]1CCC[C@H]1N[*:1])[*:2]; ξW = NC(Cc1c[nH]c2ccccc12)C(=O)O; ξF = NC(Cc1ccccc1)C(=O)O; Boc = CC(C)(C)OC(=O)*; ξK = NCCCCC(N)C(=O)O; ξT = CC(O)C(N)C(=O)O; tBu = CC(C)(C)*

How the values were obtained:
Experiment in all cases: NCI tumour cell line growth inhibition, 48 h
[1] = tested on: COLO 205 colon
[2] = tested on: HCT-116 colon
[3] = tested on: MDA-N
[4] = tested on: NCI-H460 lung
[5] = tested on: OVCAR-4 ovarian
[6] = tested on: SF-539 CNS
[7] = tested on: SK-MEL-28 melanoma
[8] = tested on: SR leukemia
[9] = tested on: SW-620 colon
[10] = tested on: T-47D breast
[11] = tested on: UACC-62 melanoma

| SMILES | TGI [1] | TGI [2] | TGI [3] | TGI [4] | TGI [5] | TGI [6] | TGI [7] | TGI [8] | TGI [9] | TGI [10] | TGI [11] |
| --- | --- | --- | --- | --- | --- | --- | --- | --- | --- | --- | --- |
| CC1(C)CC(O)C2=C(O1)C(=O)c1ncccc1C2=O (configuration not stated) | 4.89 µM | 5.76 µM | 3.45 µM | 5.89 µM | 3.15 µM | 3.28 µM | 3.16 µM | > 19.8 µM | 3.56 µM | 5.91 µM | 3.15 µM |
| CC1=NN(C(=O)c2ccccc2O)C(=O)/C1=C/c1cccc(O)c1 | > 86.9 µM | > 100 µM | > 100 µM | > 100 µM | > 100 µM | 4.29 µM | > 100 µM | > 100 µM | > 100 µM | > 100 µM | 2.74 µM |
| Cn1c(NNc2ccccc2)cc(=O)[nH]c1=O | > 100 µM | > 100 µM | 45.4 µM | > 100 µM | > 100 µM | > 100 µM | > 100 µM | > 100 µM | > 100 µM | > 100 µM | > 100 µM |
| OCc1cc2c(ccc3sc4ccc5sc6ccc7ncccc7c6c5c4c32)s1 | 21.3 µM | 23 µM | 23.9 µM | 26.3 µM | 89.2 µM | 32.4 µM | > 100 µM | > 100 µM | > 100 µM | 24.9 µM | 38.6 µM |
| Cc1ccc(/C=N/n2c(Cc3ccccc3)n[nH]c2=O)cc1 | > 100 µM | > 100 µM | > 100 µM | > 100 µM | > 100 µM | > 100 µM | > 100 µM | > 100 µM | > 100 µM | > 100 µM | – |
| CC(=O)OCC(C)C1=C(OC(C)=O)C(=O)C2(C)C/C=C(/C)CC/C=C(\C)CCC(OC(C)=O)C(C)CCC12 (configuration not stated) | 37.8 µM | 36 µM | 33.5 µM | 10.8 µM | 82.3 µM | 38.7 µM | 33.8 µM | 40.3 µM | 40.7 µM | 89 µM | 28 µM |
| O=C(O)CSC(CC1(c2ccc(Cl)cc2)NC(=O)CS1)c1ccc(Cl)cc1 (configuration not stated) | > 100 µM | > 100 µM | > 100 µM | > 100 µM | > 100 µM | > 100 µM | – | > 100 µM | > 100 µM | > 100 µM | > 100 µM |
| CCCC(=O)Nc1cc(/C=C/C(=O)N2CC(CCl)c3c2cc(OCc2ccccc2)c2[nH]cc(C)c32)n(C)c1 (configuration not stated) | 1.22 µM | 0.225 µM | 1.67 µM | 0.0588 µM | 0.889 µM | 0.165 µM | 1.54 µM | 0.0722 µM | > 25 µM | 1.7 µM | 0.0934 µM |
| CC(OC(C)(C)C)C1NC(=O)C(CCCCNC(=O)OC(C)(C)C)NC(=O)C(Cc2c[nH]c3ccccc23)NC(=O)C(Cc2ccccc2)NC(=O)[C@H]2CCC[C@H]2NC(=O)C(Cc2ccccc2)NC1=O (some centres not stated) (cyclo([X27][ξF][ξW][ξK](Boc)[ξT](tBu)[ξF])) | > 100 µM | > 100 µM | > 100 µM | > 100 µM | > 100 µM | > 100 µM | > 100 µM | > 100 µM | > 100 µM | > 100 µM | > 100 µM |
